Patent publication US8912181B2 (Taiho Pharmaceutical Co., Ltd., priority 2011, dated 2014)

Key:
SK-BR-3 cells = assay: Determination of cell growth inhibition (crystal violet staining method); format: cell-based; settings: Homo sapiens; breast cancer cells SK-BR-3, 72 hours culture with test substance
Procedure: Cell growth was assayed by a crystal violet staining method. SK-BR-3 cells (HTB-30) purchased from American Type Culture Collection were inoculated at a concentration of 5,000 cells/well to a 96-well plate (#353075, BD Biosciences). After culture at 37° C. for 24 hours in a 5% CO2 incubator, each test substance was added thereto, and the cells were further cultured for 72 hours. A 25% glutaraldehyde solution (#17025-25, Nacalai Tesque, Inc.) was added thereto at a concentration of 20 μL/well per 200 μL of the medium, and the plate was incubated at room temperature for 20 minutes to fix the cells. The plate was washed with water and dried. Then, a solution containing 0.05% crystal violet (#038-17792, Wako Pure Chemical Industries, Ltd.) and 20% methanol was added thereto at a concentration of 100 μL/well, and the plate was incubated at room temperature for 20 minutes to stain the cells. The plate was washed with water and dried. A mixed solution of 0.05 M NaH2PO4 and ethanol (mixed in equal amounts) was added thereto at a concentration of 100 μL/well. Absorbance was measured at 540 nm using a microplate reader (MTP-450, Corona Electric Co., Ltd.) and used as an index for the number of cells per well. Percent inhibition (%) of cell growth by each compound of the present invention was determined according to the formula shown below with the absorbance of no drug addition group as a control. […] Percent inhibition (%)=(C−T)/C×100, wherein T: Absorbance of well with test substance addition C: Absorbance of well without test substance addition.

[1] = target: human HSP90 alpha protein (N-terminal, amino acids 2 to 236) (Homo sapiens (Human), UniProt P07900); assay: Determination of HSP90-binding activity (AlphaScreen competitive assay with biotinylated geldanamycin); settings: inhibition of binding of biotinylated geldanamycin to purified HSP90 N-terminal protein, read-out: HSP-binding activity IC50
Procedure: First, a purified HSP90 solution was prepared as follows: a human HSP90 alpha gene (NCBI Reference Sequence accession no. NM-005348) region corresponding to amino acids 2 to 236 of human HSP90 alpha protein (NCBI Reference Sequence accession no. NP-005339; full length: 732 amino acids) was inserted to pET-19b (Novagen; Merck KGaA) to construct a plasmid pET-HS[…] for expression of the HSP90 N-terminal protein having a His-tag at the N-terminus. E. coli (BL21(DE3), Stratagene Corp.) was transformed with pET-HS[…] and then cultured at 37° C. for 4 hours in the presence of 0.5 mM isopropyl-beta-D-thiogalactopyranoside (Sigma-Aldrich Corp.). The collected E. coli was suspended in a lysis buffer (50 mM Tris-HCl (pH 7.5), 200 mM NaCl) and sonicated. The sonicated cell solution was centrifuged (40,000×g, 20 minutes), and the supernatant was used as a crude extract. This crude extract was fractionated using Ni Sepharose High Performance (GE Healthcare Japan Corp.) chromatography and HiLoad 26/60 Superdex 75 pg (GE Healthcare Japan Corp.). Then, a fraction of HSP90 protein concentrates was prepared in a solution containing 50 mM Tris-HCl (pH 7.5) and 20% glycerol as a purified HSP90 solution. The purified HSP90 solution was divided and stored at -80° C. until use. HSP90-binding activity was determined by an AlphaScreen competitive assay system. […] After reaction at room temperature for 2 hours, biotinylated geldanamycin was added thereto at a concentration of 40 nM/well and further reacted for 1 hour. Detection mix (20 mM HEPES-KOH (pH 7.5), 0.5% BSA, 0.04 mg/mL Nickel Chelate Acceptor beads, 0.04 mg/mL Streptavidin-coated Donor beads) (#6760619C, PerkinElmer, Inc.) was added to each well in an amount equal to the amount of the reaction solution and reacted at room temperature for 1 hour in the dark. Then, fluorescence intensity was measured using Multilabel Plate Reader EnVision (PerkinElmer, Inc.). Percent inhibition (%) of the binding of biotinylated geldanamycin by each compound of the present invention was determined according to the formula shown below with the fluorescence signal of no test substance addition group as a control. […] Percent inhibition (%)=(C-T)/C×100, wherein T: Signal of well with test substance addition C: Signal of well without test substance addition.

SMILES | IC50 (SK-BR-3 cells) | IC50 [1]
NC(=O)c1ccc(-c2cccc3c(-c4cnc5ccccc5c4)nccc23)cc1NC1CCC(O)CC1 (stereo not shown) [Comp. Ex. 1, 2-(4-Hydroxycyclohexylamino)-4-(1-(quinolin-3-yl)isoquinolin-5-yl)benzamide, reference compound] | 8420 nM | > 100000 nM
NC(=O)c1ccc(-c2cccc3c(-c4cnc5ccccc5c4)ncnc23)cc1NC1CCC(O)CC1 (stereo not shown) [Comp. Ex. 2, 2-(4-Hydroxycyclohexylamino)-4-(4-(quinolin-3-yl)quinazolin-8-yl)benzamide, reference compound] | > 10000 nM | > 100000 nM
CCNc1cc(-c2cccc3c(-n4cnc(-c5cnn(C)c5)c4)nccc23)ccc1C(N)=O [Comp. Ex. 3, 2-(Ethylamino)-4-(1-(4-(1-methyl-1H-pyrazol-4-yl)-1H-imidazol-1-yl)isoquinolin-5-yl)benzamide, reference compound] | 7630 nM | > 100000 nM
CCNc1cc(-c2nccc3c(-n4cnc(-c5cnn(C)c5)c4)cccc23)ccc1C(N)=O [Example 1, 2-(Ethylamino)-4-(5-(4-(1-methyl-1H-pyrazol-4-yl)-1H-imidazol-1-yl)isoquinolin-1-yl)benzamide] | 120 nM | –
NC(=O)c1ccc(-c2nccc3c(-c4cncc(N)c4)cccc23)cc1NC1CCC(O)CC1 (stereo not shown) [Example 2, 4-(5-(5-Aminopyridin-3-yl)isoquinolin-1-yl)-2-(4-hydroxycyclohexylamino)benzamide] | 150 nM | –
Cn1cc(-c2cn(-c3cccc4c(-c5ccc(C(N)=O)c(N)c5)nc(C(F)(F)F)nc34)cn2)cn1 [Example 4, 2-Amino-4-(8-(4-(1-methyl-1H-pyrazol-4-yl)-1H-imidazol-1-yl)-2-(trifluoromethyl)quinazolin-4-yl)benzamide] | 280 nM | 340 nM
NC(=O)c1ccc(-c2nccc3c(-c4cnc5nc[nH]c5c4)cccc23)cc1NC1CCC(O)CC1 (stereo not shown) [Example 12] | 170 nM | 70 nM
NC(=O)c1ccc(-c2nccc3c(-c4cnc5nccnc5c4)cccc23)cc1NC1CCC(O)CC1 (stereo not shown) [Example 13, 2-(4-Hydroxycyclohexylamino)-4-(5-(pyrido[2,3-b]pyrazin-7-yl)isoquinolin-1-yl)benzamide] | 580 nM | 450 nM
NC(=O)c1ccc(-c2nccc3c(-c4cnc5[nH]ccc5c4)cccc23)cc1NC1CCC(O)CC1 (stereo not shown) [Example 14, 4-(5-(1H-Pyrrolo[2,3-b]pyridin-5-yl)isoquinolin-1-yl)-2-(4-hydroxycyclohexylamino)benzamide] | 340 nM | 1500 nM
NC(=O)c1ccc(-c2nccc3c(-c4cccnc4)cccc23)cc1NC1CCC(O)CC1 (stereo not shown) [Example 15, 2-(4-Hydroxycyclohexylamino)-4-(5-(pyridin-3-yl)isoquinolin-1-yl)benzamide] | 210 nM | 140 nM
NC(=O)c1ccc(-c2nccc3c(-n4cnc(Br)c4)cccc23)cc1NC1CCC(O)CC1 (stereo not shown) [Example 54, 4-(5-(4-Bromo-1H-imidazol-1-yl)isoquinolin-1-yl)-2-(4-hydroxycyclohexylamino)benzamide] | 480 nM | –
Cn1cc(-c2cn(-c3cccc4c(-c5ccc(C(N)=O)c(N)c5)cc(C5CC5)nc34)cn2)cn1 [Example 106, 2-Amino-4-(2-cyclopropyl-8-(4-(1-methyl-1H-pyrazol-4-yl)-1H-imidazol-1-yl)quinolin-4-yl)benzamide] | – | 100 nM
CC(C)(C)Nc1cc(-c2cc(C(F)(F)F)nc3c(-n4cnc(-c5ccccc5)c4)cccc23)ccc1C(N)=O [Example 107, 2-(Tert-butylamino)-4-(8-(4-phenyl-1H-imidazol-1-yl)-2-(trifluoromethyl)quinolin-4-yl)benzamide] | 240 nM | –

The remaining compounds from weak to strong by IC50 (SK-BR-3 cells), led by results:

IC50 (SK-BR-3 cells) | IC50 [1] | SMILES
110 nM | 480 nM | Cc1ccc2cc(-c3cccc4c(-c5ccc(C(N)=O)c(NC6CCC(O)CC6)c5)nccc34)cnc2c1 (stereo not shown) [Example 11, 2-(4-Hydroxycyclohexylamino)-4-(5-(7-methylquinolin-3-yl)isoquinolin-1-yl)benzamide]
110 nM | – | CC(C)Cn1cc(-c2cn(-c3cccc4c(-c5ccc(C(N)=O)c(NC6CCC(O)CC6)c5)nccc34)cn2)cn1 (stereo not shown) [Example 52, 2-(4-Hydroxycyclohexylamino)-4-(5-(4-(1-isobutyl-1H-pyrazol-4-yl)-1H-imidazol-1-yl)isoquinolin-1-yl)benzamide]
90 nM | 1440 nM | CC(C)(C)Nc1cc(-c2cc(C(F)(F)F)nc3c(-c4cnc5ccccc5c4)cccc23)ccc1C(N)=O [Example 5, 2-(Tert-butylamino)-4-(2′-(trifluoromethyl)-3,8′-biquinolin-4′-yl)benzamide]
80 nM | – | NCC(=O)OC1CCC(Nc2cc(-c3nccc4c(-c5cnc6ccccc6c5)cccc34)ccc2C(N)=O)CC1 (stereo not shown) [Example 33, 4-(2-Carbamoyl-5-(5-(quinolin-3-yl)isoquinolin-1-yl)phenylamino)cyclohexyl-2-aminoacetate]
50 nM | 270 nM | Cc1ccc2ncc(-c3cccc4c(-c5ccc(C(N)=O)c(NC6CCC(O)CC6)c5)nccc34)cc2c1 (stereo not shown) [Example 9, 2-(4-Hydroxycyclohexylamino)-4-(5-(6-methylquinolin-3-yl)isoquinolin-1-yl)benzamide]
30 nM | 170 nM | NC(=O)c1ccc(-c2nccc3c(-c4cnc5ccccc5c4)cccc23)cc1NC1CCC(O)CC1 (stereo not shown) [Example 6, 2-(4-Hydroxycyclohexylamino)-4-(5-(quinolin-3-yl)isoquinolin-1-yl)benzamide]
30 nM | – | Cn1cc(-c2cn(-c3cccc4c(-c5ccc(C(N)=O)c(NC6CCCCCC6)c5)nccc34)cn2)cn1 [Example 63, 2-(Cycloheptylamino)-4-(5-(4-(1-methyl-1H-pyrazol-4-yl)-1H-imidazol-1-yl)isoquinolin-1-yl)benzamide]
20 nM | 100 nM | Cc1cc2c(-c3cnc4ccccc4c3)cccc2c(-c2ccc(C(N)=O)c(NC3CCC(O)CC3)c2)[n+]1[O-] (stereo not shown) [Example 8, 1-(4-Carbamoyl-3-(4-hydroxycyclohexylamino)phenyl)-3-methyl-5-(quinolin-3-yl)isoquinoline-2-oxide]
10 nM | 190 nM | CCNc1cc(-c2cc(C(F)(F)F)nc3c(-n4cnc(-c5cnn(C)c5)c4)cccc23)ccc1C(N)=O [Example 3, 2-(Ethylamino)-4-(8-(4-(1-methyl-1H-pyrazol-4-yl)-1H-imidazol-1-yl)-2-(trifluoromethyl)quinolin-4-yl)benzamide]
10 nM | 150 nM | Cc1cc2c(-c3cnc4ccccc4c3)cccc2c(-c2ccc(C(N)=O)c(NC3CCC(O)CC3)c2)n1 (stereo not shown) [Example 7, 2-(4-Hydroxycyclohexylamino)-4-(3-methyl-5-(quinolin-3-yl)isoquinolin-1-yl)benzamide]
10 nM | – | Cn1cc(-c2cn(-c3cccc4c(-c5ccc(C(N)=O)c(NCC6CC6)c5)cc(C(F)(F)F)nc34)cn2)cn1 [Example 65, 2-(Cyclopropylmethylamino)-4-(8-(4-(1-methyl-1H-pyrazol-4-yl)-1H-imidazol-1-yl)-2-(trifluoromethyl)quinolin-4-yl)benzamide]
10 nM | – | CCNc1cc(-c2cc(C(F)(F)F)nc3c(-n4cnc(-c5cnn(C(F)F)c5)c4)cccc23)ccc1C(N)=O [Example 91, 4-(8-(4-(1-Difluoromethyl-1H-pyrazol-4-yl)-1H-imidazol-1-yl)-2-(trifluoromethyl)quinolin-4-yl)-2-(ethylamino)benzamide]
